Measurements as given in PMC5491650, “Structure-Activity Relationships of Pentacyclic Triterpenoids as Potent and Selective Inhibitors against Human Carboxylesterase 1” (Frontiers in Pharmacology, 2017).
“Also recorded” adds a separate entry of the source.

Key:
Format in all cases: biochemical
[1] = target: T1, hCE1 (Homo sapiens, UniProt P23141); assay: Inhibition of hCE1-mediated BMBT hydrolysis in HLMs; set-up: tissue Celsis (Shanghai, China); host or cells: human liver microsomes (HLM)
T1 sequence (P23141 18-567): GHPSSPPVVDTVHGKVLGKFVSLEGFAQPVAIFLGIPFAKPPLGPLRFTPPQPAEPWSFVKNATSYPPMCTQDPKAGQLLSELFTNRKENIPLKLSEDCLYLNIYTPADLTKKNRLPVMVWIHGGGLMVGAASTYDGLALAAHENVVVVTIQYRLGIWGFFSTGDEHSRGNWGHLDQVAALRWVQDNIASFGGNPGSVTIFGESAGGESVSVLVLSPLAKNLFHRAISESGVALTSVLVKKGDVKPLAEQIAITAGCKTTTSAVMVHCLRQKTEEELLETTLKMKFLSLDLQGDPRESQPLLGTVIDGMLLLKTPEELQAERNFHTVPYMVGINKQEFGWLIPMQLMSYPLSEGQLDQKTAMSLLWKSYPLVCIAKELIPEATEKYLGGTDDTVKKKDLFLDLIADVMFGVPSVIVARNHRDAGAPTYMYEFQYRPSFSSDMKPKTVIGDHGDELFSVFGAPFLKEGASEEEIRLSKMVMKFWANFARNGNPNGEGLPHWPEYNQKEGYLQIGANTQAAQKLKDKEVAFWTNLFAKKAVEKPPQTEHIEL
Protocol: The half maximal inhibitory concentration (IC50) of each compound was determined using various inhibitor concentrations under the same incubation conditions as mentioned above. The inhibition constant (Ki) values of compound 22 against hCE1 in HLM were determined using varied concentrations of DME in the presence or absence of each inhibitor. […] Dixon plot and Lineweaver-Burk plots were used to fit the data. The inhibition kinetic type was evaluated by determining the intersection point in the Dixon and Lineweaver-Burk plots. The second plots based on the slopes from Lineweaver-Burk plot vs. inhibitor concentrations were utilized to calculate each the inhibition constant (Ki) value (Wang et al., [2015]; Zhu et al., [2015], [2016]).
To this end, another optical probe substrate (BMBT) for hCE1 was used for further investigation on the inhibition behaviors of compound 22 (Liu et al., [2014]).

[2] = target: T1, hCE1; assay: Inhibition of DME hydrolysis by recombinant hCE1
Protocol: To further investigate the inhibitory behaviors of compound 22 on the catalytic activity of hCE1, the inhibition behaviors of this compound against hCE1 were performed. […] In addition, the inhibitory tendency and potency of compound 22 against DME-hydrolysis in both HLMs and hCE1 were much closed (Figure S1).

[3] = target: T2, hCE2 (Homo sapiens, UniProt O00748); assay: hCE2 inhibition assay, DDAB hydrolysis in human liver microsomes; details: DDAB as probe substrate, HLM; averages of at least three experiments; read-out: IC50 (hCE2)
T2 construct: tissue Celsis (Shanghai, China); host or cells: human liver microsomes (HLM)
T2 sequence (O00748 27-559): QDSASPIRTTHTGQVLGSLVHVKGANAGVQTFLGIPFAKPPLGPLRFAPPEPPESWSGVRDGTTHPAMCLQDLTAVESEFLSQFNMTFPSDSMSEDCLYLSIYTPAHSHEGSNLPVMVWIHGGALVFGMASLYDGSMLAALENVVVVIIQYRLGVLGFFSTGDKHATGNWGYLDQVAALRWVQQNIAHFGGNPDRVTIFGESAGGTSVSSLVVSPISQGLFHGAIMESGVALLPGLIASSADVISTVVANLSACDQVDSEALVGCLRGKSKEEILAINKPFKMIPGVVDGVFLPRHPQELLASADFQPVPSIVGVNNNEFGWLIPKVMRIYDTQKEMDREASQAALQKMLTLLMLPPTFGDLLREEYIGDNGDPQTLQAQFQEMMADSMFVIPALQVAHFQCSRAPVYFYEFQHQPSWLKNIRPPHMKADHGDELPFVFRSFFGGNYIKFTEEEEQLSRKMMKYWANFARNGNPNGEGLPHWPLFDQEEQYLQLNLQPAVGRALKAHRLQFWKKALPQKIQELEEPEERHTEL
Protocol: (§1) All fluorescence-based assays were performed on Synergy H^1 Hybrid Multi-Mode Microplate Reader (BioTek, USA).
(§2) The inhibitory effects toward CEs were assayed using DME and DDAB as the specific probe substrates for hCE1 and hCE2, respectively. […] Control incubations without BNPP were also performed. After incubation, ice-cold acetonitrile (equal volume of incubation mixture, 200 μL) was added to terminate the reaction. The mixture was then centrifuged at 20,000 g for 20 min at 4°C. All these compounds dissolved in DMSO, and the final concentration of DMSO was <2% (V/V). Aliquots of the supernatant were then taken for further microplate reader analyses. […] First, each of the potential esterase inhibitors was pre-incubated with HLM at 37°C for 10 min with shaking in microplate reader. Then DME was added to start the reaction. After incubation at 37°C for 10 min in a shaking bath, LDR (equal volume of incubation mixture, 50 μL) was added to terminate the reaction, and luminescence measurements were conducted as described above.

[4] = target: T1, hCE1; assay: hCE1 inhibition assay, DME hydrolysis in human liver microsomes; set-up: tissue Celsis (Shanghai, China); host or cells: human liver microsomes (HLM);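 note: carboxylesterase inhibition read out as probe hydrolysis, with DME serving as hCE1 substrate and DDAB as hCE2 substrate, in DMSO below 2% (V/V)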
Protocol: as §1, §2

IC50 [1]: 30.3 nM
Ki [1]: 35.5 nM
inhibition type against hCE1-mediated BMBT hydrolysis ([1]; HLMs, Lineweaver-Burk plot): non-competitive inhibitor
IC50 [2]: 9.2 nM
IC50 [3]: 83 µM
Ki [4]: 12.6 nM
IC50 ([4]; IC50 (hCE1), DME as probe substrate, HLM, averages of at least three experiments): 12 nM
IC50 ([4]; IC50 against hCE1, DME hydrolysis in HLM): 12.6 nM
Selectivity ([4]; calculated from IC50 (hCE2)/IC50 (hCE1) as printed): 6919.2
selectivity over hCE2 ([4]; hCE1 versus hCE2, values of the text): 6,919 fold
Observed Log(IC50_hCE1) ([4]; log of the experimental IC50 in μM, used for 3D-QSAR): -1.921 μM
Compound: CC1CCC2(C(=O)O)CCC3(C)C(=CCC4C5(C)CCC(OC(=O)CCC(=O)O)C(C)(C)C5CCC43C)C2C1C (stereo not drawn) [Compound 22, 3β-O-(β-carboxypropionyl)-urs-12-en-28-oic acid]
inhibition type against hCE1-mediated DME hydrolysis ([4]; HLMs, Lineweaver-Burk plots): competitive inhibitor; also recorded: competitive inhibition
